Legend:
GLUT1 [1] = target: T1, GLUT1 (Homo sapiens, UniProt P11166); experiment: Reduction of specific 3H-cytochalasin B binding in HCLE cells; assay type: cell-based
T1 sequence (P11166 1-492): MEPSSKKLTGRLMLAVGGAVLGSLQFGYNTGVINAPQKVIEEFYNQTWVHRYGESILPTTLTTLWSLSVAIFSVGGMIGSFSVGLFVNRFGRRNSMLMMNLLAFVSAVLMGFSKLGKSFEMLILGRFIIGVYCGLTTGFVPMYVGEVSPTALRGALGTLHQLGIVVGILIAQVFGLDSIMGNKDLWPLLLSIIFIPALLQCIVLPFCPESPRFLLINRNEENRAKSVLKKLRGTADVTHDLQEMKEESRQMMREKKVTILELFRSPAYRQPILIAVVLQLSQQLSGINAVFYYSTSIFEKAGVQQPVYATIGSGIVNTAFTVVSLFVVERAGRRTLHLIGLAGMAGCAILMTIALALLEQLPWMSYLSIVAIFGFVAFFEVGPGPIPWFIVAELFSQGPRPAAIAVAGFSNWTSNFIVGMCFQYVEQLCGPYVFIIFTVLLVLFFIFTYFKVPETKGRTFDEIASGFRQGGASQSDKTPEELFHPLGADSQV

GLUT1 [2] = target: T2, GLUT1 (Mus musculus, UniProt P17809); experiment: Inhibition of 3H-2-deoxyglucose uptake in L929 cells; assay type: cell-based
T2 sequence (P17809 1-492): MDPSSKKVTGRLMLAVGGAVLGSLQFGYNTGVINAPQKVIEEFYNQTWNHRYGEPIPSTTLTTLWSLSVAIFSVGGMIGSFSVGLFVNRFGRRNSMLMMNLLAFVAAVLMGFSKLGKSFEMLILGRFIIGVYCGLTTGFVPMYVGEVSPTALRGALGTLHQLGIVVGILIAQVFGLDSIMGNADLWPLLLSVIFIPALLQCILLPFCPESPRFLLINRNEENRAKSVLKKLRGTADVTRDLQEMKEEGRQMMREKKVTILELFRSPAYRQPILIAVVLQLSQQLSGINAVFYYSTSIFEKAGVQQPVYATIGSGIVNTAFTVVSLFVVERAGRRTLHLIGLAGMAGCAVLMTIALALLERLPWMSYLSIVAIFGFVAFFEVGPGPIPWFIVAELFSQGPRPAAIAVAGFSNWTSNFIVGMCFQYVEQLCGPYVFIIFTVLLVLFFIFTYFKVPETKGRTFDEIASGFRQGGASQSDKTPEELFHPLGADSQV

With `COc1cc(/C=C/C(=O)CC(=O)/C=C/c2ccc(O)c(OC)c2)ccc1O` [Cur, Curcumin] the “Reduction of specific 3H-cytochalasin B binding in HCLE cells; 2DG uptake inhibi” value (GLUT1 [1]) was 80% reduction at 75 and the IC50 (GLUT1 [2]) was 19 µM.

Reference: article PMC5006061 (Biochimie, 2016)
